Assay results as given in BindingDB's records for doi:10.1016/j.ejmech.2016.03.076 (Chinese Academy of Sciences (Cas), 2016).

What was measured:
[1] = Inhibition of TPR-MET in mouse BAF3 cells assessed as reduction in cell proliferation after 72 hrs by SRB or MTT assay
[2] = Inhibition of c-Met in human EBC-1 cells assessed as reduction in cell proliferation after 72 hrs by SRB or MTT assay
[3] = Inhibition of c-Met in human MKN45 cells assessed as reduction in cell proliferation after 72 hrs by SRB or MTT assay

Structure (SMILES)	IC50 [1] [nM]	IC50 [2] [nM]	IC50 [3] [nM]
Cn1cc(-c2ccc3nnc(C(F)(F)c4ccc5ncccc5c4)n3n2)cn1 [US9062045, Comparator No. 1 (JNJ-38877605)]	8.6	5.5	9.5
Fc1ccc(-c2cnc3nnc(C(F)(F)c4ccc5ncccc5c4)n3n2)cc1		0.85	0.46
